The source of these data is publication PMC7538598 (Scientific Reports, 2020).

In assay [1] the target is T1, α1-GFP GlyR (Homo sapiens, UniProt P23415).
T1 construct: made in house; host or cells: Xenopus laevis oocytes injected with cRNA; total solubilized membranes in SMA nanodiscs
T1 sequence (P23415 29-457): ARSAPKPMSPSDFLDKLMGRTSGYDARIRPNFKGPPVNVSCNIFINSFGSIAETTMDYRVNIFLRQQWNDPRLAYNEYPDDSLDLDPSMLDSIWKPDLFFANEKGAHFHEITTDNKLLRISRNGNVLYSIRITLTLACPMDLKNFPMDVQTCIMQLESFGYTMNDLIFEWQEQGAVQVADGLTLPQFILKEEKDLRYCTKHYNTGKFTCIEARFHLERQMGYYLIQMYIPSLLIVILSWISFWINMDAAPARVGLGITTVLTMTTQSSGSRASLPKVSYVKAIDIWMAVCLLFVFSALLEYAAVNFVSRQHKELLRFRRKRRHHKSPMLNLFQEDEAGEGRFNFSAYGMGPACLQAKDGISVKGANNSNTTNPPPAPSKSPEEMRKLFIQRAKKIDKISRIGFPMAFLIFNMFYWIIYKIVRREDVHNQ
In words: MST of α1-GFP GlyR SMA-copolymer nanodiscs (total solubilized membranes) from X. laevis oocytes. It counts as binding. The conditions noted are these: mean ± SEM, read-out: cEC50 (MST). The procedure:
cRNA was synthesized using the AmpliCap-Max T7 High Yield Message Maker Kit (Cellscript, Madison, WI, USA). Therefore GFP-GlyR α1 in pCDNA3.1(+) was linearized with NotI. Oozytes were surgically taken from female X. laevis after anesthesia with 0.1% Tricaine in water. For SMA-copolymer solubilization, 300–400 oocytes were injected with 50 ng in a volume of 50.6 nl of cRNA. After injection the oocytes were incubated in ND-96 solution (96 mM NaCl, 2 mM KCl, 1 mM CaCl2, 1 mM MgCl2, 5 mM HEPES, pH 7.4) at 18 °C for 1–2 days.

The target of assay [2] is T2, α1 GlyR (Homo sapiens, UniProt P23415).
T2 construct: GFP (N); expressed in transfected cells; host or cells: Xenopus laevis oocytes (cRNA injection)
T2 sequence (P23415 29-457): T1 sequence (P23415 29-457)
Put plainly: Two-electrode voltage-clamp whole-cell current recordings in X. laevis oocytes expressing α1 GlyR. It counts as cell-based. A general note: In two-electrode clamp one electrode senses voltage and the other passes current.

Assay [3] concerns GlyR. The conditions noted are these: full agonist, maximal current responses; cited from earlier work.

On to `NCCS(=O)(=O)O` [taurine], for which the EC50 came to 474 ± 66.1 µM in assay [1] and 843 ± 16 µM in assay [2] (α1 GlyR expressed in X. laevis oocytes, clamped at −70 mV, mean ± SEM, read-out: aEC50 (electrophysiology)). In addition, in assay [2] (α1 GlyR in X. laevis oocytes, normalized to maximum glycine currents, n = 3), the “maximal current compared to glycine” value is listed as 61%.

For the compound `NCC(=O)O` [glycine], the “opening times in single-channel recordings” value in assay [3] is listed as 95–98%.
